Measured values as given in US20040266002A1, “Use of abscisic acid in somatic embryogenesis of pine trees” (Weyerhaeuser Company, priority 2003, published 2004).
Marks after values point to notes of the source that are not given here.

Test system: Loblolly pine (Pinus taeda) pre-cotyledonary somatic embryos
Test: Abscisic acid pulse during development of Loblolly pine somatic embryos
Type: cell-based
Experimental: Development: Pre-cotyledonary somatic embryos were transferred from maintenance medium into solid development medium BM3 containing 25 mg/L abscisic acid for four weeks to yield treated pre-cotyledonary somatic embryos. The development medium either lacks growth hormones entirely, or has them present only at very low levels. The further inclusion of an adsorbent composition in this medium is advantageous. The adsorbent composition is normally present at a concentration of about 0.1-5 g/L, more generally about 0.25-2.5 g/L. Gelrite was included at a concentration of about 0.25%.
After culturing pre-cotyledonary embryos on solid development medium containing 25 mg/L abscisic acid for 4 weeks, the abscisic acid-treated pre-cotyledonary embryos were transferred on a filter paper support to solid development medium without abscisic acid. The solid development medium without abscisic acid had the same composition as development medium BM3. Development is preferably carried out in complete darkness at a temperature of 22°-25 C until elongated cotyledonary embryos have developed. Development time is typically several weeks, such as 10 to 12 weeks.
Female gametophytes containing zygotic embryos were removed from seeds of genotypes A, B and C, as described in EXAMPLE 1, above. The induction and maintenance stages were as described in EXAMPLE 1.
To test the effect of a pulse of abscisic acid, pre-cotyledonary embryos were transferred to a filter paper support placed on solid development medium BM3 containing abscisic acid. Six different treatments were tested. The concentration of abscisic acid, and the time period during which the pre-cotyledonary embryos were exposed to the abscisic acid during each treatment, are shown in Table 3.
As a control, pre-cotyledonary embryos were maintained in development medium BM3 containing 25 mg/L abscisic acid for twelve weeks. After twelve weeks, both control and experimental embryos were taken through the standard post-development treatments as described in EXAMPLE 1. Germination was assessed after twelve weeks on germination media in the light at room temperature.

Compound: CC1=CC(=O)CC(C)(C)[C@@]1(O)/C=C/C(C)=C\C(=O)O [Abscisic Acid, abscisic acid]
- Mean Dry Weight (All genotypes combined, Control: 25 mg/L abscisic acid weeks 1-12): 0.37 mg/emb
- Mean Dry Weight (All genotypes combined, Treatment 1: 25 mg/L weeks 1-3, 0 weeks 4-12): 0.49* mg/emb
- Mean Dry Weight (All genotypes combined, Treatment 2: 25 mg/L weeks 1-5, 0 weeks 6-12): 0.47* mg/emb
- Mean Dry Weight (All genotypes combined, Treatment 3: 25 mg/L weeks 1-7, 0 weeks 8-12): 0.47* mg/emb
- Mean Dry Weight (All genotypes combined, Treatment 4: 25 mg/L weeks 1-9, 0 weeks 10-12): 0.48* mg/emb
- Mean Dry Weight (All genotypes combined, Treatment 5: 25 mg/L weeks 1-3, 15 weeks 4-5, 10 weeks 6-7, 5 weeks 8-9, 0 weeks 10-12): 0.50* mg/emb
- Mean Dry Weight (All genotypes combined, Treatment 6: 25 mg/L weeks 1-5, 15 weeks 6-7, 10 weeks 8-9, 0 weeks 10-12): 0.48* mg/emb
- Embryo morphology at the end of development (both control (continuous abscisic acid) and experimental (pulse) embryos): good morphological form, good cotyledon development, and normal color
- Mean Dry Weight (genotype A, Control: 25 mg/L abscisic acid weeks 1-12): 0.27 mg/emb
- Mean Dry Weight (genotype A, Treatment 1: 25 mg/L weeks 1-3, 0 weeks 4-12): 0.38* mg/emb
- Mean Dry Weight (genotype A, Treatment 2: 25 mg/L weeks 1-5, 0 weeks 6-12): 0.36* mg/emb
- Mean Dry Weight (genotype A, Treatment 3: 25 mg/L weeks 1-7, 0 weeks 8-12): 0.34 mg/emb
- Mean Dry Weight (genotype A, Treatment 4: 25 mg/L weeks 1-9, 0 weeks 10-12): 0.32 mg/emb
- Mean Dry Weight (genotype A, Treatment 5: 25 mg/L weeks 1-3, 15 weeks 4-5, 10 weeks 6-7, 5 weeks 8-9, 0 weeks 10-12): 0.36* mg/emb
- Mean Dry Weight (genotype A, Treatment 6: 25 mg/L weeks 1-5, 15 weeks 6-7, 10 weeks 8-9, 0 weeks 10-12): 0.33 mg/emb
- Mean Dry Weight (genotype B, Control: 25 mg/L abscisic acid weeks 1-12): 0.31 mg/emb
- Mean Dry Weight (genotype B, Treatment 1: 25 mg/L weeks 1-3, 0 weeks 4-12): 0.32 mg/emb
- Mean Dry Weight (genotype B, Treatment 2: 25 mg/L weeks 1-5, 0 weeks 6-12): 0.31 mg/emb
- Mean Dry Weight (genotype B, Treatment 3: 25 mg/L weeks 1-7, 0 weeks 8-12): 0.37 mg/emb
- Mean Dry Weight (genotype B, Treatment 4: 25 mg/L weeks 1-9, 0 weeks 10-12): 0.37 mg/emb
- Mean Dry Weight (genotype B, Treatment 5: 25 mg/L weeks 1-3, 15 weeks 4-5, 10 weeks 6-7, 5 weeks 8-9, 0 weeks 10-12): 0.36 mg/emb
- Mean Dry Weight (genotype B, Treatment 6: 25 mg/L weeks 1-5, 15 weeks 6-7, 10 weeks 8-9, 0 weeks 10-12): 0.36 mg/emb
- Mean Dry Weight (genotype C, Control: 25 mg/L abscisic acid weeks 1-12): 0.55 mg/emb
- Mean Dry Weight (genotype C, Treatment 1: 25 mg/L weeks 1-3, 0 weeks 4-12): 0.79* mg/emb
- Mean Dry Weight (genotype C, Treatment 2: 25 mg/L weeks 1-5, 0 weeks 6-12): 0.80* mg/emb
- Mean Dry Weight (genotype C, Treatment 3: 25 mg/L weeks 1-7, 0 weeks 8-12): 0.69 mg/emb
- Mean Dry Weight (genotype C, Treatment 4: 25 mg/L weeks 1-9, 0 weeks 10-12): 0.76* mg/emb
- Mean Dry Weight (genotype C, Treatment 5: 25 mg/L weeks 1-3, 15 weeks 4-5, 10 weeks 6-7, 5 weeks 8-9, 0 weeks 10-12): 0.90* mg/emb
- Mean Dry Weight (genotype C, Treatment 6: 25 mg/L weeks 1-5, 15 weeks 6-7, 10 weeks 8-9, 0 weeks 10-12): 0.84* mg/emb
- Dry weight of embryos receiving the abscisic acid pulse versus control embryos (pulse treatments versus control with 25 mg/L abscisic acid for twelve weeks): higher dry weight than the control embryos
